Data reported in patent publication US20200115314A1, “METHOD OF PRODUCING PLASTICIZER AND REDUCING ENERGY CONSUMPTION” (SABIC Global Technologies B.V., priority 2017, published 2020).

Assays:
Type in all cases: physicochemical
[1] = Solubility tests for trimellitic anhydride in 2-ethyl hexanol
Protocol: Tri octyl trimellitate (TOTM) is one of the most commonly used non-phthalate based plasticizers. Tri octyl trimellitate is produced via esterification reaction between trimellitic anhydride (TMA) and 2-ethyl hexanol (2-EH). According to embodiments of the invention, trimellitic anhydride may be dissolved in 2-ethyl hexanol before it is transferred to an esterification reactor. Thus, the solubility of trimellitic anhydride in 2-ethyl hexanol was tested under various molar ratios of trimellitic anhydride to 2-ethyl hexanol. In this experiment, a hundred grams of trimellitic anhydride was initially added to 2-ethyl hexanol at a molar ratio of 1:1 to form a mixture. The temperature of the mixture was controlled in a range of 110° C. to 150 ° C. Additional 2-ethyl hexanol was gradually added to the mixture to change the molar ratio of trimellitic anhydride to 2-ethyl hexanol until complete dissolution of trimellitic anhydride in 2-ethyl hexanol was observed. The amount of added 2-ethyl hexanol was recorded to obtain a molar ratio needed for the complete dissolution of trimellitic anhydride.

[2] = Repeated solubility test for trimellitic anhydride in 2-ethyl hexanol
Protocol: The temperature range for complete dissolution of trimellitic anhydride was further repeated by varying the temperature in a range of 110° C. to 149° C. when the molar ratio of trimellitic anhydride to 2-ethyl hexanol was kept at 1:3.25. About 100 g of trimellitic anhydride was used. When a complete dissolution of trimellitic anhydride was observed, the amount of water formed during the dissolution and total time consumed for dissolution are recorded.

[3] = Solubility tests for trimellitic anhydride in 2-ethyl hexanol; remark: listed apart in the source

- Dissolution ([1]; TMA:2-EH molar ratio 1:1, 110-150 °C): No
- Dissolution ([1]; TMA:2-EH molar ratio 1:2, 110-150 °C): No
- Dissolution ([1]; TMA:2-EH molar ratio 1:2.5, 110-150 °C): No
- Dissolution ([1]; TMA:2-EH molar ratio 1:3, 110-150 °C): No
- Dissolution ([1]; TMA:2-EH molar ratio 1:3.25, 110-150 °C): Yes
- Time for complete dissolution ([2]; about 149 °C, molar ratio about 1:3.25): 20 to 30 min
- Dissolution ([2]; in 2-ethyl hexanol, TMA:2-EH molar ratio 1:3.25, 110-149 °C): Yes
- Temperature at which the mixture becomes milky ([2]; on cooling, molar ratio 1:3.25): 60 °C
- Temperature at which turbidity starts forming in the solution ([2]; on cooling, molar ratio 1:3.25): 65 °C
- Temperature at which water formation starts ([3]; TMA:2-EH molar ratio 1:1, no catalyst): at 135 °C
- Temperature at which water formation starts ([3]; TMA:2-EH molar ratio 1:2, no catalyst): at 135 °C
- Temperature at which water formation starts ([3]; TMA:2-EH molar ratio 1:2.5, no catalyst): at 135 °C
- Temperature at which water formation starts ([3]; TMA:2-EH molar ratio 1:3, no catalyst): at 135 °C
- Temperature at which water formation started ([3]; at each molar ratio, without catalysts): 135 °C
SMILES: O=C(O)c1ccc2c(c1)C(=O)OC2=O [trimellitic anhydride]
